As a reminder, the MIC is the least concentration at which growth counts as inhibited. Broadly, the IC50 is the concentration needed to halve the response being measured. What is called melting point is the temperature, or range, at which the solid turns liquid.

One data set has as its system Helicobacter pylori. Further details: method as in PMID 16377035. Conditions: cited from earlier work.
The test system of data set [1] is S. typhimurium TISTR 2519. The data set can be described thus: Antibacterial microbroth dilution MIC, S. typhimurium. Conditions: Salmonella enterica; Gram-negative; microbroth dilution, 37 °C, 24 h; read-out: MIC S. typhimurium. In kind it is cell-based. Here is the method: (§1) The antibacterial activities of coumarin derivatives 10, 12, 13, 14a–g, and 15 were evaluated against five reference standard bacteria, both gram-positive and gram-negative: B. cereus TISTR 2372, B. subtilis TISTR 001, S. aureus TISTR 2392, E. coli TISTR 073, and S. typhimurium TISTR 2519, using a standard microbroth dilution method.
(§2) The MIC values of coumarin derivatives 10, 12, 13, 14a–g, and 15 were determined through the microbroth dilution method in 96-well microtitre plates. The bacterial cultures were prepared from overnight cultures on nutrient broth (NB) at 37 °C for 24 h by diluting in NB compared with 0.5 McFarland. Coumarin derivatives 10, 12, 13, 14a–g, and 15 (5000 µg/mL) were prepared in EtOH, and 128 µg/mL of these were added to the first wells. Two-fold serial dilutions were prepared, and final concentrations of 128 to 1 µg/mL were achieved. The positive controls for penicillin G were determined, with the final concentrations from 128 to 1 µg/mL. In addition, an extra row of EtOH was used as a vehicle control to determine its possible inhibitory activity. Finally, 10 µL of bacterial suspension was added to each well. After the bacteria were incubated at 37 °C for 24 h, the microtitre plates were visually examined for bacterial growth; the growth rate was monitored at the optical density at 600 nm with a microplate reader.
On the technique in general: Dilution methods test growth across graded concentrations, often in twofold steps.

Another data set concerns E. coli TISTR 073. In words: Antibacterial microbroth dilution MIC, E. coli. Particulars: Escherichia coli, TISTR073; Gram-negative; microbroth dilution, 37 °C, 24 h; read-out: MIC E. coli. Type of data set: cell-based. Here is the method:
as §1, §2

For another data set, the system named is HeLa cancer cell line. The data set can be described thus: MTT cell viability assay, HeLa. Type of data set: cell-based. Conditions: Homo sapiens, HeLa, 24 h, cancer cell line; MTT assay, 24 h treatment; read-out: IC50 HeLa. Here is the method: (§3) The cell viability assays of coumarin derivatives 10, 12, 13, 14a–g, and 15 were conducted against three cancer cell lines (HepG2, HeLa, and MDA-MB-231) and one normal cell line (LLC-MK2) using an MTT assay.
(§4) Stock solutions of coumarin derivatives 10, 12a, 13, 14a–g, and 15 were prepared in EtOH at a concentration of 5000 µg/mL. Prior to use, the stock solutions were further diluted to 128 µg/mL and added to the first wells. Two-fold serial dilutions were prepared, and final concentrations of 128 to 1 µg/mL in culture medium were achieved. Cells were seeded at a density of 5 × 10^4 cells/well in a 96-well plate and incubated for 16 h, followed by treatment with the test compounds. The control culture contained the carrier solvent of 2.5% dimethyl sulfoxide (DMSO). After 24 h, HepG2, HeLa, MDA-MB-231, and LLC-MK2 cells were then incubated with MTT (500 μg/mL) for 4 h. Then, DMSO was added to dissolve the blue formazan crystals formed, which were formed as a result of the action of cellular oxidoreductase enzymes on the MTT dye. Finally, the optical density at 450 nm was determined using a microplate reader.

The next data set has as its system B. subtilis TISTR 001. The data set can be described thus: Antibacterial microbroth dilution MIC, B. subtilis. In kind it is cell-based. Conditions: Bacillus subtilis, TISTR001; Gram-positive; microbroth dilution, 37 °C, 24 h; read-out: MIC B. subtilis. Here is the method: as §1, §2
The next data set relates to S. aureus TISTR 2392. In words: Antibacterial microbroth dilution MIC, S. aureus. Type of data set: cell-based. Conditions: Staphylococcus aureus, TISTR2392; Gram-positive; microbroth dilution, 37 °C, 24 h; read-out: MIC S. aureus. As for the experimental part:
as §1, §2

Another data set concerns B. cereus TISTR 2372. The data set can be described thus: Antibacterial microbroth dilution MIC, B. cereus. In kind it is cell-based. Particulars: Bacillus cereus, TISTR2372; Gram-positive; microbroth dilution, 37 °C, 24 h; read-out: MIC B. cereus. As for the experimental part: as §1, §2
The next data set deals with LLC-MK2 normal cell line. In words: MTT cell viability assay, LLC-MK2 normal cells. Type of data set: cell-based. Conditions: Macaca mulatta, LLC-MK2; normal cell line; MTT assay, 24 h treatment; read-out: IC50 LLC-MK2. As for the experimental part:
as §3, §4
For orientation: Formazan colour is commonly taken as a measure of viable cells.

In the next data set the test system is HepG2 cancer cell line. In words: MTT cell viability assay, HepG2. Conditions: Homo sapiens, HepG2, 24 h, cancer cell line; MTT assay, 24 h treatment; read-out: IC50 HepG2. In kind it is cell-based. Here is the method:
as §3, §4

In brackets after ≈: the same amount, converted by molar mass.

For `O=C(O)c1ccc(NC(=O)c2cc3ccccc3oc2=O)cc1` [4a], the “MIC H. pylori” value in the data set with Helicobacter pylori is 1 µg/mL (≈ 3.23 µM).

With `CC(C)=CCc1cc2cc(C(=O)Nc3ccccc3)c(=O)oc2cc1O` [14a, 7-Hydroxy-6-(3-methylbut-2-en-1-yl)-2-oxo-N-phenyl-2H-chromene-3-carboxamide], the melting point fell in the range of 258 to 259 °C. The MIC in [1] is above 128 µg/mL. The MIC in the data set on E. coli TISTR 073 is above 128 µg/mL. In the data set with HeLa cancer cell line, the IC50 turned out to be 10.4 µM. The MIC with B. subtilis TISTR 001 was above 128 µg/mL. Besides, the MIC with S. aureus TISTR 2392 was above 128 µg/mL. Moreover, the MIC in the data set with B. cereus TISTR 2372 is above 128 µg/mL. Moreover, in the data set with LLC-MK2 normal cell line, the IC50 is 0.48 µM. Moreover, the 50% inhibitory concentration (IC50) in the data set on HepG2 cancer cell line amounted to 4.33 µM.

The values above are taken from publication PMC8002271, “Synthesis and Biological Activity Evaluation of Coumarin-3-Carboxamide Derivatives” (Molecules, 2021).
